Assay results as given in ChEMBL document CHEMBL1142204, “Cathepsin A is the major hydrolase catalyzing the intracellular hydrolysis of the antiretroviral nucleotide phosphonoamidate prodrugs GS-7340 and GS-9131” (Antimicrob Agents Chemother, 2007).

Tests used:
[1] = Inhibition of crude human PBMC extract prodrug hydrolase using [14C]GS-7340 substrate
[2] = Inhibition of purified prodrug hydrolase using [14C]GS-7340 substrate; set-up: species or system Homo sapiens
[3] = molecular target: T1, Liver carboxylesterase (Sus scrofa, UniProt Q29550); experiment: Inhibition of porcine liver carboxylesterase using [14C]GS-7340 substrate
T1 sequence (Q29550 whole entry): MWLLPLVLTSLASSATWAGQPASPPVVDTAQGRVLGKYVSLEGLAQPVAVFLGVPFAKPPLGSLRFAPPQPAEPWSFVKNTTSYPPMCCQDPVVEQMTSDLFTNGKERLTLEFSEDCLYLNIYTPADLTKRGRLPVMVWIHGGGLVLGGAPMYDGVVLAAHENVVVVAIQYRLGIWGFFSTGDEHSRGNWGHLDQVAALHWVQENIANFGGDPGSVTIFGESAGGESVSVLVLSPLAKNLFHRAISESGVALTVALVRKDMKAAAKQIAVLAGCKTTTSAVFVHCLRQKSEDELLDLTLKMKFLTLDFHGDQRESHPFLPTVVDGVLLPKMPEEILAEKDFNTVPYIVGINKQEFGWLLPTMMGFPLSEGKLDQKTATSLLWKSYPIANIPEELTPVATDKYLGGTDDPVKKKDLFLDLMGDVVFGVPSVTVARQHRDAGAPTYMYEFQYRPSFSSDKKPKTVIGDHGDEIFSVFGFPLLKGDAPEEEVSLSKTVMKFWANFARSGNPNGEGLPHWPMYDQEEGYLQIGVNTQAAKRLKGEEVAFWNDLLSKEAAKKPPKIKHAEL

[4] = molecular target: T2, Lysosomal protective protein (Homo sapiens, UniProt P10619); experiment: Inhibition of recombinant CatA using [14C]GS-7340 substrate
T2 sequence (P10619 whole entry): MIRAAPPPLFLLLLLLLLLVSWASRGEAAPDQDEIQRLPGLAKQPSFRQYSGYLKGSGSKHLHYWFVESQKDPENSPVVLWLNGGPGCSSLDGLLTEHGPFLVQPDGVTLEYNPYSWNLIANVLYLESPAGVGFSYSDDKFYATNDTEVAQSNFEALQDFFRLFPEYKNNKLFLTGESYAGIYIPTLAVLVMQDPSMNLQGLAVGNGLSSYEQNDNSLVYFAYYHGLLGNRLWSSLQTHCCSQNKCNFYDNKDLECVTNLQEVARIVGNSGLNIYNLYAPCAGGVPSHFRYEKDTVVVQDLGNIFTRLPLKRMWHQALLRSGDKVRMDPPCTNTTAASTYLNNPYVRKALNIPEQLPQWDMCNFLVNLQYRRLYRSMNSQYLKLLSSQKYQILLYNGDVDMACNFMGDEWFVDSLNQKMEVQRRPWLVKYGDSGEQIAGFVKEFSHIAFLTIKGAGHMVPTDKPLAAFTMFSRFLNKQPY

[5] = molecular target: T3, Neutrophil elastase (Homo sapiens, UniProt P08246); experiment: Inhibition of human leukocyte elastase using [14C]GS7340 substrate
T3 sequence (P08246 whole entry): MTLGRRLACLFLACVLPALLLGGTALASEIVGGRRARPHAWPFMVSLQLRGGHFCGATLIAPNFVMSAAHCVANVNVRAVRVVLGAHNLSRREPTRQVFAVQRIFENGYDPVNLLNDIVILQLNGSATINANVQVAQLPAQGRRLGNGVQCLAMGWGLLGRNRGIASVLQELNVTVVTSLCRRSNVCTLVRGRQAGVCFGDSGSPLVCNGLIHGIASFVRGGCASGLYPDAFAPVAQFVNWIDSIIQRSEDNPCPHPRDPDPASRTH

| IC50 [5] [µM] | SMILES | IC50 [1] [µM] | IC50 [2] [µM] | IC50 [3] [µM] | IC50 [4] [µM] |
| --- | --- | --- | --- | --- | --- |
| > 300 | CC(C)C[C@H](NC(=O)[C@H]1O[C@@H]1C(=O)O)C(=O)NCCCCN=C(N)N [E-64] | > 300 | > 300 | > 300 | > 300 |
|  | O=c1oc(Cl)c(Cl)c2ccccc12 | 5 | 0.5 | > 250 | 0.6 |
